Assays:
Rho kinase 1 (ROCK-I) = Rho kinase 1 (ROCK-I) (Homo sapiens, UniProt Q13464); assay: In vitro Rho kinase inhibitory activity assay (ADP-Glo), Rho kinase 1; assay type: biochemical; conditions: 10 μM ATP, 25° C., expressed as range of activity
Summary of the method: (§1)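 Each kinase (ROCK1 or ROCK2) sat with compound for 30 min at 25 °C before 10 μM ATP started a 1 h reaction on 2.5 μM myelin basic protein (Tris pH 7.5, MgCl2, BSA, DTT, 1% DMSO). ADP formed was read by ADP-Glo luminescence. Dose-response IC50s were converted to Ki by Cheng-Prusoff.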

Rho kinase 2 (ROCK-II) = Rho kinase 2 (ROCK-II) (Homo sapiens, UniProt O75116); assay: In vitro Rho kinase inhibitory activity assay (ADP-Glo), Rho kinase 2; assay type: biochemical; conditions: 10 μM ATP, 25° C., expressed as range of activity
Chain of Rho kinase 2 (ROCK-II) (O75116 whole entry): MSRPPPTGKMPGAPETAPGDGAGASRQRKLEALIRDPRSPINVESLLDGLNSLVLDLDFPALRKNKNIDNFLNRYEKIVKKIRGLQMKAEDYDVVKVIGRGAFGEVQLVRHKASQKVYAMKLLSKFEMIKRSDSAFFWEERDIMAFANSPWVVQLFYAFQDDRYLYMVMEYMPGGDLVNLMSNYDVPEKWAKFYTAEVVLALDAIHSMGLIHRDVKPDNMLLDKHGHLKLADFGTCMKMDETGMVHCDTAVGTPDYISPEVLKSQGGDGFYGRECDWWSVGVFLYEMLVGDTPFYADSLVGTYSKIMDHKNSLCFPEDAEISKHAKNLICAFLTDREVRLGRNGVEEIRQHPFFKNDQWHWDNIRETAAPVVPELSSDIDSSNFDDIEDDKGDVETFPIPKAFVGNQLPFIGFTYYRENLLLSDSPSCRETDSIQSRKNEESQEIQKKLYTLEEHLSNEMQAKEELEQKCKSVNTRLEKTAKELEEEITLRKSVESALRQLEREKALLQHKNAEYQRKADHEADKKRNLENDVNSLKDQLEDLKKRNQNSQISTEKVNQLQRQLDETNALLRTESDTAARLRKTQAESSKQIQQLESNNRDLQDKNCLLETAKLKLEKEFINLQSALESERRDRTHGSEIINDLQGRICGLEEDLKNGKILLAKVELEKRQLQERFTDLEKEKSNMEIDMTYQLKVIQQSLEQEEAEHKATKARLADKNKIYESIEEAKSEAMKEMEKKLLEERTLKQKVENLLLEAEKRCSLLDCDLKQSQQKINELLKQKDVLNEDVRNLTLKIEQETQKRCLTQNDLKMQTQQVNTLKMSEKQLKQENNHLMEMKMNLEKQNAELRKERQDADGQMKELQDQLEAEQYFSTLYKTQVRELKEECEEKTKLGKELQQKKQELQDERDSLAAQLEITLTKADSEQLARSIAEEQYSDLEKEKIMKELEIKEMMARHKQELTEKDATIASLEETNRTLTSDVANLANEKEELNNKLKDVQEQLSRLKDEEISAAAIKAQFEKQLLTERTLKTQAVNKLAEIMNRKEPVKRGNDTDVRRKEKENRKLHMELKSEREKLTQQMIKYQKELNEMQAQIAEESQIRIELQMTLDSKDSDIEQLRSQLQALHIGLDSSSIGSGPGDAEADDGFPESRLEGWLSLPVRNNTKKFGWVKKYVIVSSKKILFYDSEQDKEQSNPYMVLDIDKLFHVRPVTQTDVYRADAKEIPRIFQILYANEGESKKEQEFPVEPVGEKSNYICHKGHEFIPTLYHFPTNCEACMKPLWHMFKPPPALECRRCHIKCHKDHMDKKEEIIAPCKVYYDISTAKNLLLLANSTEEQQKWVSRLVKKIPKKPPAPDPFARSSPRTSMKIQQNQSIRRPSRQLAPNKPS
Summary of the method: as §1

Chain of Rho kinase 1 (ROCK-I) (Q13464 whole entry): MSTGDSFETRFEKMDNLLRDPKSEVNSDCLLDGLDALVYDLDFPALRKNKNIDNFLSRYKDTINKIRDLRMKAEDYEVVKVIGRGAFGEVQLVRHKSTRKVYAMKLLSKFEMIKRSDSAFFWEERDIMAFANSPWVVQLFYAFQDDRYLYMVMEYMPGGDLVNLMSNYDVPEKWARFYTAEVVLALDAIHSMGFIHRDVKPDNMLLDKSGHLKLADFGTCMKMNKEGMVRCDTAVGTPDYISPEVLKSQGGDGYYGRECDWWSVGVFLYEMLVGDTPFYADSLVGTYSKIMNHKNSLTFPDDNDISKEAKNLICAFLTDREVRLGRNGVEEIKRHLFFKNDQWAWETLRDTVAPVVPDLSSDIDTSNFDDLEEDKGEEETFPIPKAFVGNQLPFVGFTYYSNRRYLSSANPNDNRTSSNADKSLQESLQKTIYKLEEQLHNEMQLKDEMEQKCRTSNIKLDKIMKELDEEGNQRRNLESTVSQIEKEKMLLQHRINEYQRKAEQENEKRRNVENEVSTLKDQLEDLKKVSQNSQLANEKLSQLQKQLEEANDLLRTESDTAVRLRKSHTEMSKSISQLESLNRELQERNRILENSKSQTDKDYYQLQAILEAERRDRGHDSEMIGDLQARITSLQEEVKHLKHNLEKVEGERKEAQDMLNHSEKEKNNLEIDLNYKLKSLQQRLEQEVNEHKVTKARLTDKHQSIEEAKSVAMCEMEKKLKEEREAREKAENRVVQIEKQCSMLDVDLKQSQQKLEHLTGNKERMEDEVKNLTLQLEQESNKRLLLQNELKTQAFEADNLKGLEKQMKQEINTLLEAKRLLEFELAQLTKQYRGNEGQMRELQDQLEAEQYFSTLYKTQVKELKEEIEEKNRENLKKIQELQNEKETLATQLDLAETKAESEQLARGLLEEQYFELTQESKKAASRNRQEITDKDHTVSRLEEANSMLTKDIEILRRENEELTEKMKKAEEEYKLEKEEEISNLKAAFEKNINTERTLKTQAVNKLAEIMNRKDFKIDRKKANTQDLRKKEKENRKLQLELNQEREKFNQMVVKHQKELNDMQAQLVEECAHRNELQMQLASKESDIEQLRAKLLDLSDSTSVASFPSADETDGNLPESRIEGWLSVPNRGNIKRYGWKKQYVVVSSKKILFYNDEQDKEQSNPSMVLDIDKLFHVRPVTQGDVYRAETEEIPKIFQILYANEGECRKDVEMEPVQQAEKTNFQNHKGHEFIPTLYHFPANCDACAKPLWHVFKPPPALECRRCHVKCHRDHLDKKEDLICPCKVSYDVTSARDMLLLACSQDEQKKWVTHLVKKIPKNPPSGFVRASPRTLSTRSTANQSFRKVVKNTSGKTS

Row | SMILES | Ki (Rho kinase 1 (ROCK-I)) [nM] | Ki (Rho kinase 2 (ROCK-II)) [nM]
1 | Cc1c[nH]c2nccc(Oc3ccc(C[C@H](N)C(=O)N4CCN(Cc5ccccc5)CC4)cc3)c12 [Example 88, (S)-2-amino-1-(4-benzylpiperazin-1-yl)-3-(4-((3-methyl-1H-pyrrolo[2,3-b]pyridin-4-yl)oxy)phenyl)propan-1-one] | < 3 | < 3
2 | Cc1c[nH]c2nccc(Oc3ccc(CC(N)C(=O)N4CCN(C)CC4)cc3F)c12 (stereo not drawn) [Example 59, 2-amino-3-(3-fluoro-4-((3-methyl-1H-pyrrolo[2,3-b]pyridin-4-yl)oxy)phenyl)-1-(4-methylpiperazin-1-yl)propan-1-one] | < 3 | < 3
3 | CN1CCC(NC(=O)[C@@H](N)Cc2ccc(Oc3ccnc4[nH]cc(-c5cncs5)c34)c(F)c2)CC1 [Example 205, (S)-2-amino-3-(3-fluoro-4-((3-(thiazol-5-yl)-1H-pyrrolo[2,3-b]pyridin-4-yl)oxy)phenyl)-N-(1-methylpiperidin-4-yl)propanamide] | < 3 | < 3
